Reference: paper PMC11277476, “Synthesis and Biological Evaluation of Novel 2-Aroyl Benzofuran-Based Hydroxamic Acids as Antimicrotubule Agents” (International Journal of Molecular Sciences, 2024)

Columns and labels:
MDA-MB-231 cells = experiment: In vitro growth inhibition (resazurin, 72 h), MDA-MB-231; type: cell-based; settings: Homo sapiens, mean ± SE
MCF-7 cells = experiment: In vitro growth inhibition (resazurin, 72 h), MCF-7; type: cell-based; settings: Homo sapiens, MCF7, mean ± SE
[1] = test system: tubulin (colchicine site); experiment: Inhibition of [3H]colchicine binding to tubulin; set-up: species or system bovine; settings: tubulin 0.5 µM, [3H]colchicine 5 µM, tested compound 5 µM
Procedure, shortened: (§1)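 Assembly: 10 μM bovine brain tubulin preincubated with compound in 0.8 M monosodium glutamate pH 6.6 at 30 °C, chilled, GTP added, then warmed to 30 °C and followed turbidimetrically. Colchicine binding: 0.5 μM tubulin with 5 μM [3H]colchicine and 5 μM compound, DEAE-cellulose filter by gravity.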

human recombinant HDAC6 = target: T1, human recombinant HDAC6 (Homo sapiens, UniProt Q9UBN7); experiment: HDAC isoform inhibition, fluorogenic substrate, HDAC6; type: biochemical; settings: mean ± SE, read-out: IC50 (µM) hHDAC6
T1 construct: purchased BPS Bioscience 50056
T1 sequence (Q9UBN7 1-1215): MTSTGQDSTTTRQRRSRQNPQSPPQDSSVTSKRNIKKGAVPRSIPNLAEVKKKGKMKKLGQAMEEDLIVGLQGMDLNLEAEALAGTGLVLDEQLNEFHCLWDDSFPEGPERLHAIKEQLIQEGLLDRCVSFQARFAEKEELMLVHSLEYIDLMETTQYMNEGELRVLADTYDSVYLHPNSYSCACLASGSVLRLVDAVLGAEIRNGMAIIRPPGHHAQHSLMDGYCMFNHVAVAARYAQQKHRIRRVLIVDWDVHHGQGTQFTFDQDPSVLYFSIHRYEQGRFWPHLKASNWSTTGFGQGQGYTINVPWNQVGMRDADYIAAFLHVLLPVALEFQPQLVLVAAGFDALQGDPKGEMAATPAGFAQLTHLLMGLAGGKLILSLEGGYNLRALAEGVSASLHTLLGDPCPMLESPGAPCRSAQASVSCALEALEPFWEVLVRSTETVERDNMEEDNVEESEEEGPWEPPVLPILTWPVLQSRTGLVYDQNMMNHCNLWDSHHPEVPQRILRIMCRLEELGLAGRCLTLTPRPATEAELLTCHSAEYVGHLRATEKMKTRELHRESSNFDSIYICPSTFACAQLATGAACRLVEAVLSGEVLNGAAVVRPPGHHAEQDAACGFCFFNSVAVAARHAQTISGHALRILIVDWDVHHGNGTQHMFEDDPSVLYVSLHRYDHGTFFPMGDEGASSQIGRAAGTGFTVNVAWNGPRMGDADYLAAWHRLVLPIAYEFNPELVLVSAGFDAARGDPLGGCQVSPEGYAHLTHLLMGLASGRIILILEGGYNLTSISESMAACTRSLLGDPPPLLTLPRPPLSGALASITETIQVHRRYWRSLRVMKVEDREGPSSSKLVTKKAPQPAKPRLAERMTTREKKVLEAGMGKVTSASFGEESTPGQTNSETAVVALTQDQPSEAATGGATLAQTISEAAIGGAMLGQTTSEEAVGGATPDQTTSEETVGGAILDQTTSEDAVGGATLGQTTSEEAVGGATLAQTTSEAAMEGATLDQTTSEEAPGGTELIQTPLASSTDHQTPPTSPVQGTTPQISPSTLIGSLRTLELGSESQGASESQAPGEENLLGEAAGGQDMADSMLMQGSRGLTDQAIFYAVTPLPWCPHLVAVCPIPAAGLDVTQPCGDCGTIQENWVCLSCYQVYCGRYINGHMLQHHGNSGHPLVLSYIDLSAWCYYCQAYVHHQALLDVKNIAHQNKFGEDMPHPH
Description: Further experiments were also carried out to evaluate the inhibitory activities of test compounds on selected HDAC isoforms. […] Following an incubation of 15 min at RT, fluorescence was measured in an EnSight multimodal plate reader (PerkinElmer, Boston, MA, USA) with an excitation wavelength of 360 nm and an emission wavelength of 450 nm.

HT-29 cells [2] = experiment: In vitro growth inhibition (resazurin, 72 h), HT-29; type: cell-based; settings: Homo sapiens, mean ± SE
HT-29 cells [3] = experiment: Annexin V-PI flow cytometric analysis of apoptosis, HT-29; type: cell-based, human; settings: 96 h
Description: (§2) The quantification of apoptosis induced by the test compounds was carried out with flow cytometric analysis using the Annexin-V Fluos kit (Roche Diagnostics, Milan, Italy) following the manufacturer’s instructions. Cancer cells treated with the test compounds for the indicated time points and concentrations were then labeled with annexin V/FITC and PI and analyzed with BD FACS Celesta^TM Flow Cytometer (BD Bioscience, Franklin Lakes, NJ, USA) using the FL1 and FL3 channel, respectively, and FlowJo_v10.7.1 software.

A549 cells = experiment: In vitro growth inhibition (resazurin, 72 h), A549; type: cell-based; settings: Homo sapiens, mean ± SE
HeLa cells [4] = experiment: Annexin V-PI flow cytometric analysis of apoptosis, HeLa; type: cell-based, human; settings: 48 h, lower dose tested 25 nM
Description: as §2

HT-29 cells [5] = experiment: Cell cycle analysis (PI, flow cytometry); type: cell-based, human; settings: 250 nM for 24 h (figure legend)
Description: HT29 cells were treated with the indicated compounds for 24 h and then harvested and fixed in 70% ice-cold ethanol for 24 h. The cells were next treated with a 0.1% v/v solution of Triton X-100 in phosphate buffered saline (PBS) containing 10 μg/mL RNAse A and 20 μg/mL PI. The cells were incubated at room temperature for 30 min and then analyzed on a BD FACS Celesta^TM Flow Cytometer (BD Bioscience, Franklin Lakes, NJ, USA) in the FL3 channel. DNA histograms were analyzed using FlowJo_v10.7.1 software (BD Bioscience, Franklin Lakes, NJ, USA).

bovine brain tubulin = experiment: Inhibition of tubulin polymerization (turbidimetric); type: biochemical; settings: tubulin at 10 μM; 20 min incubation at 30 °C; read-out: Tubulin Assembly IC50 ± SD
Procedure, shortened: as §1

HeLa cells [6] = experiment: In vitro growth inhibition (resazurin, 72 h), HeLa; type: cell-based; settings: Homo sapiens, concentration inhibiting tumor cell proliferation by 50%, mean ± SE
[7] = test system: human peripheral blood mononuclear cells (PBMC) stimulated with PHA; experiment: Cytotoxicity in PHA-stimulated PBMC (resazurin, 72 h); type: cell-based; settings: mean ± SEM
Source text: (§3) Peripheral blood mononuclear cells (PBMC), obtained from human peripheral blood (leucocyte-rich plasma-buffy coats) of healthy volunteers using a Lymphoprep^TM (Serumwerk Bernburg AG) gradient, were used for the evaluation of the cytotoxic potential of compounds in normal human cells.
(§4) After extensive washing with saline solution (Hank’s Buffer Saline Solution, BioConcept, Allschwil, Switzerland), quiescent PBMCs were resuspended (1.0 × 10^6 cells/mL) in RPMI-1640 medium supplemented with 10% FBS. To evaluate cytotoxicity in proliferating PBMCs cultures, cells were resuspended at a concentration of 5 × 10^5 cells/mL in a growth medium containing […] of PHA (Irvine Scientific, Santa Ana, CA, USA). The same cellular density was utilized for resting PBMC cultures, without the addition of PHA. The tested compounds were added at different concentrations, and after a 72 h incubation, cell viability was determined using the resazurin test as described above.

[8] = test system: human peripheral blood mononuclear cells (PBMC), not stimulated with PHA; experiment: Cytotoxicity in resting PBMC (resazurin, 72 h); type: cell-based; settings: mean ± SEM
Source text: as §3, §4

IC50 (MCF-7 cells) [nM]	IC50 (human recombinant HDAC6) [µM]	IC50 (HT-29 cells [2]) [nM]	IC50 (A549 cells) [nM]	SMILES	IC50 (MDA-MB-231 cells) [nM]	Colchicine Binding % Inhibition ± SD [1] [%]	induction of apoptosis / cell death (annexin V/PI), in words (HT-29 cells [3])	cytotoxic effect (annexin V/PI), in words (HeLa cells [4])	Percentage of HT-29 cells in G1 phase (HT-29 cells [5]) [%]	Percentage of HT-29 cells in G2/M phase (HT-29 cells [5]) [%]	Percentage of HT-29 cells in S phase (HT-29 cells [5]) [%]	IC50 (bovine brain tubulin) [µM]	IC50 (HeLa cells [6]) [nM]	GI50 [7] [µM]	GI50 [8] [µM]
30 ± 0.7	10.2 ± 0.7	80.3 ± 1.31	36.7 ± 0.91	COc1cc2oc(C(=O)c3ccccc3)c(C)c2cc1/C=C/C(=O)NO [Compound 6g, (E)-3-(2-Benzoyl-6-methoxy-3-methylbenzofuran-5-yl)-N-hydroxyacrylamide]	23.9 ± 0.77	86 ± 5	able to induce cell apoptosis	greatest cytotoxic effects at the lower dose tested	34.91	40.74	24.35	0.69 ± 0.1	0.36 ± 0.01	0.15 ± 0.02	> 10
–	–	–	–	COc1ccc(/C=C\c2cc(OC)c(OC)c(OC)c2)cc1O [CA-4, combretastatin A-4, reference compound]	[…]	98 ± 2	completely resistant	greatest cytotoxic effects at the lower dose tested	41.83	27.38	30.79	[…]	4.6 ± 0.1	–	–
